From patent publication US12077503B2, “Substituted cyclic amides and their use as herbicides” (FMC CORPORATION, priority 2015, dated 2024)
Where two headings read alike, the source gives them in different places.

Tests used:
Assay in all cases: Test A postemergence
Assay type in all cases: in vivo
corn (Zea mays) = conditions: Zea mays, post-emergence, 240 h, postemergence; for plant injury at 125 g/ha: 125 g ai/ha; for plant injury at 500 g/ha: 500 g ai/ha, 0 to 100 scale, 0 is no effect, 100 is complete control
Outline: (§1)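 Each rating is a visual injury score from 0 to 100 given about 10 d after treatment, judged against untreated controls kept alongside in the greenhouse. In loam soil–sand blend, seeds got a preemergence directed soil spray, while postemergence plants were 2 to 10 cm tall at spraying.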

[1] = system: blackgrass (Alopecurus myosuroides); conditions: Alopecurus myosuroides, post-emergence, 240 h, postemergence; for pest or weed control at 125 g/ha: 125 g ai/ha; for pest or weed control at 500 g/ha: 500 g ai/ha, 0 to 100 scale, 0 is no effect, 100 is complete control
Outline: as §1

Kochia (Kochia scoparia) = conditions: Bassia scoparia, post-emergence, 240 h, postemergence; for pest or weed control at 125 g/ha: 125 g ai/ha; for pest or weed control at 500 g/ha: 500 g ai/ha, 0 to 100 scale, 0 is no effect, 100 is complete control
Outline: as §1

[2] = system: barnyardgrass (Echinochloa crus-galli); conditions: Echinochloa crus-galli, post-emergence, 240 h, postemergence; for pest or weed control at 125 g/ha: 125 g ai/ha; for pest or weed control at 500 g/ha: 500 g ai/ha, 0 to 100 scale, 0 is no effect, 100 is complete control
Outline: as §1

[3] = system: Galium (catchweed bedstraw, Galium aparine); conditions: Galium, post-emergence, 240 h, postemergence; for pest or weed control at 125 g/ha: 125 g ai/ha; for pest or weed control at 500 g/ha: 500 g ai/ha, 0 to 100 scale, 0 is no effect, 100 is complete control
Outline: as §1

[4] = system: pigweed (Amaranthus retroflexus); conditions: Amaranthus retroflexus, post-emergence, 240 h, postemergence; for pest or weed control at 125 g/ha: 125 g ai/ha; for pest or weed control at 500 g/ha: 500 g ai/ha, 0 to 100 scale, 0 is no effect, 100 is complete control
Outline: as §1

[5] = visual injury on 0 to 100 scale (0 no effect, 100 complete control), approx. 10 d, read-out: Corn plant response rating
[6] = read-out: Corn plant response rating
[7] = visual injury on 0 to 100 scale (0 no effect, 100 complete control), approx. 10 d, read-out: Blackgrass plant response rating
[8] = read-out: Blackgrass plant response rating
[9] = visual injury on 0 to 100 scale (0 no effect, 100 complete control), approx. 10 d, read-out: Kochia plant response rating
[10] = read-out: Kochia plant response rating
[11] = visual injury on 0 to 100 scale (0 no effect, 100 complete control), approx. 10 d, read-out: Barnyardgrass plant response rating
[12] = read-out: Barnyardgrass plant response rating
[13] = visual injury on 0 to 100 scale (0 no effect, 100 complete control), approx. 10 d, read-out: Galium plant response rating
[14] = read-out: Galium plant response rating
[15] = visual injury on 0 to 100 scale (0 no effect, 100 complete control), approx. 10 d, read-out: Pigweed plant response rating
[16] = read-out: Pigweed plant response rating

SMILES	plant injury at 125 g/ha (corn (Zea mays); [5]) [%]	plant injury at 500 g/ha (corn (Zea mays); [6]) [%]	pest or weed control at 125 g/ha [1, 7] [%]	pest or weed control at 500 g/ha [1, 8] [%]	pest or weed control at 125 g/ha (Kochia (Kochia scoparia); [9]) [%]	pest or weed control at 500 g/ha (Kochia (Kochia scoparia); [10]) [%]	pest or weed control at 125 g/ha [2, 11] [%]	pest or weed control at 500 g/ha [2, 12] [%]	pest or weed control at 125 g/ha [3, 13] [%]	pest or weed control at 500 g/ha [3, 14] [%]	pest or weed control at 125 g/ha [4, 15] [%]	pest or weed control at 500 g/ha [4, 16] [%]	plant injury at 125 g/ha (corn (Zea mays); visual injury vs untreated controls after approx. 10 d, 0 = no effect, 100 = complete control, read-out: Corn plant response rating (0 to 100 scale)) [%]	pest or weed control at 125 g/ha ([1]; visual injury vs untreated controls after approx. 10 d, 0 = no effect, 100 = complete control, read-out: Blackgrass plant response rating (0 to 100 scale)) [%]	pest or weed control at 125 g/ha (Kochia (Kochia scoparia); visual injury vs untreated controls after approx. 10 d, 0 = no effect, 100 = complete control, read-out: Kochia plant response rating (0 to 100 scale)) [%]	pest or weed control at 125 g/ha ([2]; visual injury vs untreated controls after approx. 10 d, 0 = no effect, 100 = complete control, read-out: Barnyardgrass plant response rating (0 to 100 scale)) [%]	pest or weed control at 125 g/ha ([3]; visual injury vs untreated controls after approx. 10 d, 0 = no effect, 100 = complete control, read-out: Galium plant response rating (0 to 100 scale)) [%]	pest or weed control at 125 g/ha ([4]; visual injury vs untreated controls after approx. 10 d, 0 = no effect, 100 = complete control, read-out: Pigweed plant response rating (0 to 100 scale)) [%]
CN1C[C@H](c2cc(F)cc(F)c2)[C@@H](C(=O)Nc2cnccc2Cl)C1=O [Compound 1096]	0	0	0	0	0	0	0	0	0	0	0	0	–	–	–	–	–	–
Cc1cc([C@H]2CN(C)C(=O)[C@@H]2C(=O)Nc2ccc(F)cc2F)ccc1Br [Compound 1100]	0	20	0	20	0	20	60	70	0	20	0	0	–	–	–	–	–	–
Cc1cc([C@H]2CN(C)C(=O)[C@@H]2C(=O)Nc2ccc(F)c(F)c2F)ccc1Br [Compound 1101]	30	70	0	30	30	60	70	80	50	60	30	50	–	–	–	–	–	–
Cc1cc([C@H]2CN(C)C(=O)[C@@H]2C(=O)Nc2ccccc2S(C)(=O)=O)ccc1Br [Compound 1102]	20	60	20	50	0	0	80	80	0	30	0	0	–	–	–	–	–	–
CN1C[C@H](c2cscn2)[C@@H](C(=O)Nc2ccccc2F)C1=O [Compound 1112]	0	0	0	0	0	0	0	0	0	0	0	0	–	–	–	–	–	–
CN1C[C@H](c2cc(C(F)F)cs2)[C@@H](C(=O)Nc2ccccc2F)C1=O [Compound 1120]	0	60	30	50	20	70	90	90	40	60	0	20	–	–	–	–	–	–
CSc1ccccc1NC(=O)[C@H]1C(=O)NC[C@@H]1c1cc(F)c(F)c(F)c1 [Compound 1124]	0	0	0	0	60	70	60	90	50	60	0	60	–	–	–	–	–	–
Cc1c(F)cccc1NC(=O)[C@H]1C(=O)NC[C@@H]1c1cc(F)c(F)c(F)c1 [Compound 1125]	30	60	40	50	0	40	90	90	40	50	0	0	–	–	–	–	–	–
CN1C[C@H](c2ccc3c(c2)OCO3)[C@@H](C(=O)Nc2cccc(F)c2F)C1=O [Compound 1126]	60	90	20	40	50	70	90	90	50	40	0	30	–	–	–	–	–	–
O=C1NC[C@H](c2ccc3c(c2)OCO3)[C@H]1C(=O)Nc1cccc(F)c1C(F)(F)F [Compound 1127]	0	0	0	20	0	0	0	40	0	40	0	0	–	–	–	–	–	–
O=C1NC[C@H](c2ccc(F)c(OC(F)(F)C(F)F)c2)[C@H]1C(=O)Nc1cccc(F)c1F [Compound 1131]	70	80	40	60	60	70	70	90	60	60	50	80	–	–	–	–	–	–
Cc1nc([C@H]2CNC(=O)[C@@H]2C(=O)Nc2cccc(F)c2F)cs1 [Compound 1180]	–	0	–	0	–	0	–	0	–	0	–	0	0	0	0	0	0	0
